Measured values from paper PMC11861906, “Structural basis for lipid-mediated activation of G protein-coupled receptor GPR55” (Nature Communications, 2025).

Experiments:
Format in all cases: cell-based
[1] = target: GPR55 cryo-EM construct (Gα13) (Homo sapiens, UniProt Q9Y2T6); assay: BRET² G protein dissociation assay, GPR55 cryo-EM construct (GFP G67A) with Gα13; conditions: Cryo-EM-G67A-G13
Description: (§1) To validate the functionality of the GPR55 cryo-EM construct, we conducted bioluminescence resonance energy transfer 2 (BRET²)-based G protein dissociation assays[46],[47] using an engineered heterotrimeric G13 protein. The N-terminal GFP fusion of the receptor was additionally modified with a G67A mutation to disrupt fluorescence properties. We employed human embryonic kidney (HEK) cells overexpressing wt or mutant GPR55 together with Gβ3, Gγ9-GFP, and Gα13 tagged with Renilla luciferase 8 (Rluc8).
(§2) G protein dissociation assays were performed according to the original protocols of the TRUPATH BRET² assay[47],[87] but with subtle modifications as previously described[61],[88],[89]. All reagents and cells were obtained from Thermo Fisher Scientific unless indicated otherwise. The coding sequences for the G protein biosensors[47] (Gα12-Rluc8, Gα13-Rluc8, wt Gβ3, and Gγ9-GFP), the wt GPR55, the construct used for cryo-EM (with GFP bearing a G67A mutation to disrupt fluorescence properties[48] for BRET² assays), GPR55 binding pocket mutants (G152^4.56F, G152^4.56W, N171^ECL2Q, N171^ECL2A, T176^5.33A, R253^6.62A), and the wt TBXA2R were codon-optimized for Homo sapiens, gene-synthesized, and sub-cloned into pcDNA^TM3.1(+) between NheI and HindIII restriction sites by GeneArt (Thermo Fisher Scientific). […] Freshly grown cells were washed with Dulbecco’s Balanced Salt Solution (DPBS, cat. #14200075) and detached using trypsin-ethylenediaminetetraacetic acid (trypsin-EDTA) (cat. #25300-062). Then, the cells were reconstituted to 500,000 cells per mL with fresh medium, and 1,000,000 cells were seeded into each well of a 6-well plate. After 3 h incubation at 37 °C and 5% CO2, adherent cells were transfected with 600 ng DNA (1:1:1:1 ratio of plasmid DNA for GPR55, wt Gβ3, Gγ9-GFP, and Gα12-Rluc8 or Gα13-Rluc8). Plasmid DNA was mixed with 1.5 µL Lipofectamine^TM 2000 (cat. #11668027) in Opti-MEM^TM medium (cat. #31985062) and incubated for 20 min. Then, the mixture was added to each well of the 6-well plate following 24 h incubation at 37 °C and 5% CO2. Transfected cells were washed with DPBS, detached using EDTA (Versene, cat. #15040066), and reconstituted into fresh medium at 500,000 cells mL^−1. From this suspension, 50,000 cells were seeded into each well of a white-bottom 96-well plate (Nunc^TM MicroWell^TM 96 wells, cat. #136101) following overnight incubation at 37 °C and 5% CO2. Then, the adherent cells were washed with assay medium [Hank’s balanced salt solution (HBSS, cat. #14065056) plus 20 mM HEPES pH 7.4 (cat. #15630056)] and finally reconstituted into 50 µL of the same medium. […] Methoxy e-Coelenterazine was used as luciferase substrate (Prolume Purple, NanoLight Technology, cat. #369), reconstituted at 1 mM in methanol and diluted to 37.5 µM with assay buffer (7.5 µM final assay concentration). The assay was started by the addition of 20 µL luciferase substrate to each well of the assay plate using a Multidrop^TM Combi reagent dispenser (Thermo Fisher Scientific), followed by 5 min incubation at room temperature. Then, 30 µL of agonist dilutions or DMSO control was added (final DMSO concentration 1.5%), followed by an additional 5 min incubation at room temperature. BRET² measurements were performed with a PHERAstar® FSX microplate reader (BMG LABTECH) using a BRET² filter (donor emission 370–450 nm, acceptor emission 500–530 nm) at the maximum fluorescence gain of 3600. BRET² ratios were calculated by dividing GFP emission signals from Rluc8 emission counts. Buffer-DMSO controls were subtracted from each data point to calculate ΔBRET² ratios.

[2] = target: GPR55 mutant N171A (Gα13) (Homo sapiens, UniProt Q9Y2T6, N171A); assay: BRET² G protein dissociation assay, GPR55 N171A with Gα13
Description: as §1, §2

[3] = target: GPR55 mutant T176A (Gα13) (Homo sapiens, UniProt Q9Y2T6, T176A); assay: BRET² G protein dissociation assay, GPR55 T176A with Gα13
Description: as §1, §2

[4] = target: GPR55 mutant G152W (Gα13) (Homo sapiens, UniProt Q9Y2T6, G152W); assay: BRET² G protein dissociation assay, GPR55 G152W with Gα13
Description: as §1, §2

BRET2 response, Mean (plotted, Fig. S4) ([1]; concentration 10 pM): 0.00025 | BRET2 response, Mean (plotted, Fig. S4) ([1]; concentration 30 pM): -0.003725 | BRET2 response, Mean (plotted, Fig. S4) ([1]; concentration 100 pM): -0.000225 | BRET2 response, Mean (plotted, Fig. S4) ([1]; concentration 300 pM): 0.0002 | BRET2 response, Mean (plotted, Fig. S4) ([1]; concentration 1e-9 M): -7.5e-5 | BRET2 response, Mean (plotted, Fig. S4) ([1]; concentration 3e-9 M): 0.0017 | BRET2 response, Mean (plotted, Fig. S4) ([1]; concentration 1e-8 M): -0.0133 | BRET2 response, Mean (plotted, Fig. S4) ([1]; concentration 3e-8 M): 0.000825 | BRET2 response, Mean (plotted, Fig. S4) ([1]; concentration 1e-7 M): 0.0026 | BRET2 response, Mean (plotted, Fig. S4) ([1]; concentration 3e-7 M): 0.003275 | BRET2 response, Mean (plotted, Fig. S4) ([1]; concentration 1e-6 M): 0.00345 | Mean (plotted) BRET² response, GPR55-N171A-G13 ([2]; Concentration 10 pM): 0.0067 | Mean (plotted) BRET² response, GPR55-N171A-G13 ([2]; Concentration 30 pM): 0.0022 | Mean (plotted) BRET² response, GPR55-N171A-G13 ([2]; Concentration 100 pM): 0.008 | Mean (plotted) BRET² response, GPR55-N171A-G13 ([2]; Concentration 300 pM): -0.003007 | Mean (plotted) BRET² response, GPR55-N171A-G13 ([2]; Concentration 1e-9 M): 0.003546 | Mean (plotted) BRET² response, GPR55-N171A-G13 ([2]; Concentration 3e-9 M): 0.00299 | Mean (plotted) BRET² response, GPR55-N171A-G13 ([2]; Concentration 1e-8 M): -0.006252 | Mean (plotted) BRET² response, GPR55-N171A-G13 ([2]; Concentration 3e-8 M): 0.007492 | Mean (plotted) BRET² response, GPR55-N171A-G13 ([2]; Concentration 1e-7 M): 0.005274 | Mean (plotted) BRET² response, GPR55-N171A-G13 ([2]; Concentration 3e-7 M): 0.006727 | Mean (plotted) BRET² response, GPR55-N171A-G13 ([2]; Concentration 1e-6 M): 0.007007 | Mean (plotted) BRET² response, GPR55-N171A-G13 ([2]; Concentration 3e-6 M): 0.002553 | Mean (plotted) BRET² response, GPR55-N171A-G13 ([2]; Concentration 1e-5 M): -0.002868 | Mean (plotted) BRET² response, GPR55-N171A-G13 ([2]; Concentration 3e-5 M): -0.004916 | Mean (plotted) BRET² response, GPR55-T176A-G13 ([3]; Concentration 10 pM): -0.0049 | Mean (plotted) BRET² response, GPR55-T176A-G13 ([3]; Concentration 30 pM): 0.00215 | Mean (plotted) BRET² response, GPR55-T176A-G13 ([3]; Concentration 100 pM): 0.0004 | Mean (plotted) BRET² response, GPR55-T176A-G13 ([3]; Concentration 300 pM): 0.0002029 | Mean (plotted) BRET² response, GPR55-T176A-G13 ([3]; Concentration 1e-9 M): 0.000161 | Mean (plotted) BRET² response, GPR55-T176A-G13 ([3]; Concentration 3e-9 M): 0.0002381 | Mean (plotted) BRET² response, GPR55-T176A-G13 ([3]; Concentration 1e-8 M): -0.0002172 | Mean (plotted) BRET² response, GPR55-T176A-G13 ([3]; Concentration 3e-8 M): 0.0004783 | Mean (plotted) BRET² response, GPR55-T176A-G13 ([3]; Concentration 1e-7 M): -0.0003604 | Mean (plotted) BRET² response, GPR55-T176A-G13 ([3]; Concentration 3e-7 M): 0.004625 | Mean (plotted) BRET² response, GPR55-T176A-G13 ([3]; Concentration 1e-6 M): 0.001082 | Mean (plotted) BRET² response, GPR55-T176A-G13 ([3]; Concentration 3e-6 M): -0.0002941 | Mean (plotted) BRET² response, GPR55-T176A-G13 ([3]; Concentration 1e-5 M): 0.003133 | Mean (plotted) BRET² response, GPR55-T176A-G13 ([3]; Concentration 3e-5 M): 0.0069 | Mean (plotted) BRET² response, GPR55-G152W-G13 ([4]; Concentration 10 pM): 0.00225 | Mean (plotted) BRET² response, GPR55-G152W-G13 ([4]; Concentration 30 pM): -0.00435 | Mean (plotted) BRET² response, GPR55-G152W-G13 ([4]; Concentration 100 pM): -0.00495 | Mean (plotted) BRET² response, GPR55-G152W-G13 ([4]; Concentration 300 pM): -0.0004516 | Mean (plotted) BRET² response, GPR55-G152W-G13 ([4]; Concentration 1e-9 M): -0.001887 | Mean (plotted) BRET² response, GPR55-G152W-G13 ([4]; Concentration 3e-9 M): 7.154e-5 | Mean (plotted) BRET² response, GPR55-G152W-G13 ([4]; Concentration 1e-8 M): -0.01413 | Mean (plotted) BRET² response, GPR55-G152W-G13 ([4]; Concentration 3e-8 M): -6.439e-5 | Mean (plotted) BRET² response, GPR55-G152W-G13 ([4]; Concentration 1e-7 M): 0.001032 | Mean (plotted) BRET² response, GPR55-G152W-G13 ([4]; Concentration 3e-7 M): 0.002926 | Mean (plotted) BRET² response, GPR55-G152W-G13 ([4]; Concentration 1e-6 M): -0.00228 | Mean (plotted) BRET² response, GPR55-G152W-G13 ([4]; Concentration 3e-6 M): -0.002139 | Mean (plotted) BRET² response, GPR55-G152W-G13 ([4]; Concentration 1e-5 M): -0.008827 | Mean (plotted) BRET² response, GPR55-G152W-G13 ([4]; Concentration 3e-5 M): -0.0048
SMILES: CCCCC[C@H](O)/C=C/[C@@H]1[C@@H](C/C=C\CCCC(=O)O)[C@H]2CO[C@@H]1C2 [U-46619]
